Reference: US20260297060A1, “COMPOUNDS FOR THE DEGRADATION OF MUTANT BRAF” (C4 THERAPEUTICS, INC., priority 2023, published 2026)
Like-named read-outs stand apart in the source and are kept apart here.

Assay: Pharmacokinetics after 21 days dosing in the efficacy study (plasma, tumor and brain concentrations; plasma AUC at steady state), Example 14
Type: in vivo, female BALB/c nude mice
Settings: for Concentration in Brain / concentration at 24 h: 24 h; for Concentration in Brain: BQL: below the lower limit of quantitation; for concentration at 4 h / concentration at 24 h / concentration at 0.25 h / concentration at 0.5 h / concentration at 1 h / concentration at 2 h / concentration at 8 h / concentration at 10 h / AUC: mouse, po; for AUC: read-out: Plasma AUC at steady state (Day 21), Average
Experimental: Agents were tested in the A375 human melanoma xenografts. Compound 26 and Compound 141 were administered to BALB/c nude mice bearing A375 tumors from PG-DO and dosed via PO twice a day (BID) or third a day (TIP) or dosed P daily (QD) from PG-D. Dabrafenib was administered to BALB/c nude mice bearing A375 tumors from PG-D1 and dosed via P daily (QD). Compound 26 was dosed at 1.5 mg/kg (QD), 2 mg/kg (TID), 3 mg/kg (BID), 6 mg/kg (QD) and 10 mg/kg (BID) for 21 days. Compound 141 was dosed at 0.75 mg/kg (BID), 1 mg/kg (TID), 1.5 mg/kg (BID), 3 mg/kg (QD) and 5 mg/kg (BID) for 21 days. Dabrafenib was dosed at 100 mg/kg for 21 days. This study was non-GLP.
The plasma samples were collected at predetermined time points for PK analysis. For non-termination plasma collection: the blood samples were collected into the 1.5 mL Eppendorf tubes containing 3 μL of 0.5 M EDTA-K2. And then the anticoagulant blood samples were centrifuged at 2,500 g at 4° C. for 15 minutes. For termination plasma collection: the mice was euthanized at predetermined time points post the treatment, the blood samples were collected into the 1.5 mL Eppendorf tubes containing 15 μL of 0.5 M EDTA-K2. And then the anticoagulant blood samples were centrifuged at 2,500 g at 4° C. for 15 minutes. The plasma samples were separated into 2 aliquots. The 1st was used for PK analysis, and the 2nd was served as backup.
The tumor samples were collected at predetermined time points for PK and WB analysis. The tumor was dissected out and split into 3 parts. The 1st part was used for PK analysis, the 2nd part was used for WB analysis and the last one was used as backup for the study. The samples were transferred into pre-labeled tubes and quickly froze in liquid nitrogen within 2 minutes after dissection. The samples were stored at −80° C. before analysis.
The brain samples were collected at predetermined time points for PK and potential WB analysis. The brain was dissected out and split into 3 parts (left brain, right brain upper and right brain lower), the left brain was used for PK, the right brain upper was used for WB and the last one was used as the backup for the study. The samples were transferred into pre-labeled tubes and quickly froze in liquid nitrogen within 2 minutes after dissection. The samples were stored at −80° C. before analysis.
The harvested plasma and tumor samples were processed for pharmacokinetics analysis by LC-MS/MS with a concentration range of 1.00-1,000 ng/mL for dabrafenib in plasma and 0.0500-50 ng/mL in tumor and brain homogenate, 5.00-10,000 ng/mL for Compound 141 in plasma and 0.200~200 ng/ml in tumor and brain homogenate. 20.0~20,000 ng/mL for Compound 26 in plasma and 0.5~500 ng/mL for Compound 26 tumor and brain homogenate.
Dabrafenib, Compound 26 and Compound 141 in female BALB/c nude mice plasma (K2-EDTA), tumor and brain homogenate were analyzed by LC-MS/MS (Triple Quad 6500+ Low Mass). Verapamil (5 ng/mL) in acetonitrile: methanol (V: V=95:5) was used as the internal standard for Dabrafenib, Compound 26 and Compound 141 in plasma. Verapamil (0.5 ng/mL) in acetonitrile: methanol (V: V=95:5) was used as the internal standard for Dabrafenib, Compound 26 and Compound 141 in tumor and brain homogenate.
An aliquot of 10 μL unknown sample, calibration standard, quality control, dilute quality control, single blank and double blank samples were added to the 96-well plate. Each sample for Dabrafenib, Compound 26 and Compound 141 in plasma (except the double blank) was quenched with 200 μL IS respectively (double blank sample was quenched with 200 μL ACN: MeOH (V: V=95:5)); each sample for Dabrafenib, Compound 26 and Compound 141 in tumor and brain(except the double blank) was quenched with 100 μL IS respectively (double blank sample was quenched with 100 μL ACN: MeOH (V: V=95:5)); and then the mixture was vortex-mixed for 5 min at 800 rpm and centrifuged for 15 min at 3220 g (4000 rpm), 4° C. […]

[1] = plasma, 1.5 mg/kg p.o. BID x 21 days, mean ± SEM
[2] = plasma, 1.5 mg/kg p.o. BID x 21 days, mean ± SEM, read-out: Concentration in Plasma
[3] = plasma, 2 mg/kg p.o. TID x 21 days, mean ± SEM
[4] = plasma, 2 mg/kg p.o. TID x 21 days, mean ± SEM, read-out: Concentration in Plasma
[5] = plasma, 3 mg/kg p.o. BID x 21 days, mean ± SEM
[6] = plasma, 3 mg/kg p.o. BID x 21 days, mean ± SEM, read-out: Concentration in Plasma
[7] = plasma, 6 mg/kg p.o. QD x 21 days, mean ± SEM
[8] = plasma, 6 mg/kg p.o. QD x 21 days, mean ± SEM, read-out: Concentration in Plasma
[9] = plasma, 10 mg/kg p.o. BID x 21 days, mean ± SEM
[10] = plasma, 10 mg/kg p.o. BID x 21 days, mean ± SEM, read-out: Concentration in Plasma
[11] = tumor, 1.5 mg/kg p.o. BID x 21 days, mean ± SEM, read-out: Concentration in Tumor
[12] = tumor, 2 mg/kg p.o. TID x 21 days, mean ± SEM, read-out: Concentration in Tumor
[13] = tumor, 3 mg/kg p.o. BID x 21 days, mean ± SEM, read-out: Concentration in Tumor
[14] = tumor, 6 mg/kg p.o. QD x 21 days, mean ± SEM, read-out: Concentration in Tumor
[15] = tumor, 10 mg/kg p.o. BID x 21 days, mean ± SEM, read-out: Concentration in Tumor

With `CCN(C)S(=O)(=O)Nc1ccc(F)c(Oc2ccc3ncn([C@H]4COC5(CCN(C6CC7(C6)CN(c6cc8c(cc6F)c(N6CCC(=O)NC6=O)nn8C)C7)CC5)C4)c(=O)c3c2)c1C#N` [Compound 26, (3R)-3-[6-[2-cyano-3-[[ethyl(methyl)sulfamoyl]amino]-6-fluoro-phenoxy]-4-oxo-quinazolin-3-yl]-8-[2-[3-(2,4-dioxohexahydropyrimidin-1-yl)-5-fluoro-1-methyl-indazol-6-yl]-2-azaspiro[3.3]heptan-6-yl]-1-oxa-8-azaspiro[4.5]decane] the “Concentration in Brain” value (1.5 mg/kg p.o. BID x 21 days) was “BQL”, the “Concentration in Brain” value (2 mg/kg p.o. TID x 21 days) was “BQL” and the “Concentration in Brain” value (3 mg/kg p.o. BID x 21 days) was “BQL”. The concentration at 4 h (brain, 1.5 mg/kg p.o. BID x 21 days, mean ± SEM, read-out: Concentration in Brain) was 28 ± 8.47 ng/g, the concentration at 4 h (brain, 2 mg/kg p.o. TID x 21 days, mean ± SEM, read-out: Concentration in Brain) was 51.1 ± 11.5 ng/g and the concentration at 4 h (brain, 3 mg/kg p.o. BID x 21 days, mean ± SEM, read-out: Concentration in Brain) was 66.6 ± 4.67 ng/g. It also gave a concentration at 4 h (brain, 6 mg/kg p.o. QD x 21 days, mean ± SEM, read-out: Concentration in Brain) of 116 ± 8.11 ng/g, a concentration at 24 h (brain, 6 mg/kg p.o. QD x 21 days, read-out: Concentration in Brain) of 7.19 ng/g and a concentration at 4 h (brain, 10 mg/kg p.o. BID x 21 days, mean ± SEM, read-out: Concentration in Brain) of 233 ± 48.4 ng/g. It also gave a concentration at 24 h (brain, 10 mg/kg p.o. BID x 21 days, read-out: Concentration in Brain) of 7.79 ng/g, a concentration at 0.25 h [1] of 1330 ± 120 ng/mL and a concentration at 0.5 h [1] of 1910 ± 332 ng/mL. The concentration at 1 h [1] was 3490 ± 364 ng/mL, the concentration at 2 h [1] was 3140 ± 671 ng/mL and the concentration at 4 h [2] was 2160 ± 716 ng/mL. For the same compound, the concentration at 8 h [1] was 912 ± 118 ng/mL, the concentration at 10 h [1] was 694 ± 79.9 ng/mL and the concentration at 24 h [2] was 32.3 ng/mL. It also gave an AUC (plasma, 1.5 mg/kg p.o. BID × 21 days) of 37400 ng·h/mL, a concentration at 0.25 h [3] of 2630 ± 273 ng/mL and a concentration at 0.5 h [3] of 5750 ± 1100 ng/mL. It also gave a concentration at 1 h [3] of 5420 ± 571 ng/mL, a concentration at 2 h [3] of 5110 ± 286 ng/mL and a concentration at 4 h [4] of 3790 ± 666 ng/mL. It also gave a concentration at 8 h [3] of 2060 ± 150 ng/mL, a concentration at 10 h [3] of 1550 ± 37.1 ng/mL and a concentration at 24 h [4] of 106 ± 17.7 ng/mL. The AUC (plasma, 2 mg/kg p.o. TID × 21 days) was 88300 ng·h/mL, the concentration at 0.25 h [5] was 2490 ± 107 ng/mL and the concentration at 0.5 h [5] was 4860 ± 801 ng/mL. It also gave a concentration at 1 h [5] of 5830 ± 591 ng/mL, a concentration at 2 h [5] of 6750 ± 675 ng/mL and a concentration at 4 h [6] of 3970 ± 452 ng/mL. The concentration at 8 h [5] was 3030 ± 252 ng/mL, the concentration at 10 h [5] was 2470 ± 266 ng/mL and the concentration at 24 h [6] was 116 ± 2.4 ng/mL. The AUC (plasma, 3 mg/kg p.o. BID × 21 days) was 87900 ng·h/mL, the concentration at 0.25 h [7] was 4440 ± 284 ng/mL and the concentration at 0.5 h [7] was 9990 ± 1160 ng/mL. The concentration at 1 h [7] was 12900 ± 669 ng/mL, the concentration at 2 h [7] was 14600 ± 723 ng/mL and the concentration at 4 h [8] was 8710 ± 1880 ng/mL. The concentration at 8 h [7] was 8220 ± 421 ng/mL, the concentration at 10 h [7] was 6200 ± 192 ng/mL and the concentration at 24 h [8] was 156 ± 10.9 ng/mL. The AUC (plasma, 6 mg/kg p.o. QD × 21 days) was 115000 ng·h/mL, the concentration at 0.25 h [9] was 8790 ± 316 ng/mL and the concentration at 0.5 h [9] was 19300 ± 2220 ng/mL. The concentration at 1 h [9] was 20200 ± 2240 ng/mL, the concentration at 2 h [9] was 21300 ± 1560 ng/mL and the concentration at 4 h [10] was 15100 ± 2210 ng/mL. For the same compound, the concentration at 8 h [9] was 10900 ± 379 ng/mL, the concentration at 10 h [9] was 8660 ± 186 ng/mL and the concentration at 24 h [10] was 273 ± 24.8 ng/mL. For the same compound, the AUC (plasma, 10 mg/kg p.o. BID × 21 days) was 312000 ng·h/mL, the concentration at 4 h [11] was 392 ± 150 ng/g and the concentration at 24 h [11] was 11.8 ± 1.59 ng/g. The concentration at 4 h [12] was 930 ± 57.3 ng/g, the concentration at 24 h [12] was 80.7 ± 25.2 ng/g and the concentration at 4 h [13] was 1430 ± 159 ng/g. For the same compound, the concentration at 24 h [13] was 54.3 ± 8.91 ng/g, the concentration at 4 h [14] was 2910 ± 459 ng/g and the concentration at 24 h [14] was 338 ± 169 ng/g. The concentration at 4 h [15] was 4250 ± 313 ng/g and the concentration at 24 h [15] was 663 ± 153 ng/g.
